Data as given in publication PMC6844378, “Structure activity relationship studies on Amb639752: toward the identification of a common pharmacophoric structure for DGKα inhibitors” (Journal of Enzyme Inhibition and Medicinal Chemistry, 2019).

What was measured:
DGKα = DGKα (Homo sapiens, UniProt P23743); assay: DGK assay on OST-DGKα enriched MDCK homogenates; type: biochemical; parameters: expressed in transfected cells; host or cells: MDCK cells (vector-infected, doxycycline-induced), crude homogenate; details: for remaining activity at 100 µM: percentage of residual DGKα activity compared to DMSO control, OST-DGKα overexpressing cell lysates, saturating DAG and ATP, read-out: Residue activity at 100 µM; for IC50: residual OST-DGKα activity at 0.1, 1.0, 10.0 and 100.0 µM
Protocol: Madin-Darby canine kidney (MDCK) cells stably expressing One Strep Tag DGKα (OST-DGKα) were prepared by infecting MDCK cells with a vector expressing an inducible OST tagged DGKα constructs. MDCK cells infected with empty vector were used as controls. MDCK cells were cultured in MEM (minimal essential medium) with 5% FBS (foetal bovine serum) and 1% antibiotic–antimycotic solution. Routinely, cells were splitted every 3–4 days with trypsin–EDTA 0.25% in standard 100 mm dishes.
Large cultures of MDCK cells for enzyme preparation were done by plating 5 × 10^6 cells in 245 mm^2 dishes. Once they reached nearly 70% confluence, cells were treated with doxycycline (1 µg/mL, two days). […] Cells were collected with a rubber scraper, homogenised by passing them through a 29 G-needle syringe 20 times and stored in aliquots at –80 °C. Presence of OST-DGKα was confirmed by western blotting and enzyme assay, transduced DGKα has an activity >100 folds the endogenous DGK.
Essentionally, the same procedure was followed as reported previously in Velnati et al.[9] In brief, DGK activity was assayed by measuring initial velocities (5 min at 27 °C) in presence of saturating substrate concentrations. Reaction conditions: 0.9 µg/µL 1,2-dioleoyl-sn-glycerol, 5 mM ATP, 0.01 µCi/µL [γ^32P]-ATP, 1 mM sodium orthovanadate, 10 mM MgCl2, 1.2 mM EGTA in 7.5 mM Hepes pH 8[12]. Reaction mixture is assembled mixing enzyme (24.5 µL of homogenate), 100× inhibitor or DMSO (0.5 µL), 5× ATP solution (10 µL of 25 mM ATP, 0.05 µCi/µL [γ^32P]-ATP (Perkin-Elmer, Milan, Italy), 5 mM sodium orthovanadate, 50 mM MgCl2), and 3.3× DAG solution (15 µL of 3 µg/µL 1,2-dioleoyl-sn-glycerol resuspended by sonication in 4 mM EGTA in 25 mM Hepes pH 8). The reaction was stopped after 5 min by adding 200 µL of freshly prepared 1 M HCl and lipid was extracted by adding 200 µL of CH3OH:CHCl3 1:1 solution and vortexing for 1 min. The two phases were separated by centrifugation (12,000 RCF for 2 min). Twenty-five microlitres of the lower organic phase was spotted in small drops on silica TLC plates. TLC was run 10 cm and dried before radioactive signals were detected by GS-250 molecular imager and was quantified by quantity one (Bio-Rad, Hercules, CA) software assuring the absence of saturated spots.
Percentage residual activity was calculated as follows: (OST-DGKα homogenate with inhibitor – vector homogenate)/(OST-DGKα homogenate with DMSO – vector homogenate)×100.
Data for the screen on OST-DGKα homogenates are the mean of duplicates. The compounds showing inhibitory activity in this assay were tested >4 times and the mean ± SEM is reported.
To calculate IC50 values of active inhibitors, the inhibitor activity was measured at least three times at 0.1, 1.0, 10.0, and 100.0 µM concentration. Data were analysed using [inhibitor] vs. normalised response parameters with least square [ordinary] curve fitting method in GraphPad PRISM 8.0 software (GraphPad Software, La Jolla, CA) mentioning 95% confidence interval and IC50 values always greater than 0.0. […] In all the experiments, the data were normalised with the controls.
Each inhibitor was tested in duplicate at least once, and DGKα activity was expressed as percentage of residual DGKα activity compared to DMSO control in the same assay. Assay uses OST-DGKα overexpressing cell lysates in presence of saturating exogenous DAG and ATP. We considered R59022 (commercially available) and the lead compound Amb63975230 as our reference molecules.
To measure the inhibitor potency, we determined the IC50 values for the compounds that resulted active when tested at 100 µM by measuring the residual OST-DGKα activity over a dose range of inhibitor concentrations (0.1 µM, 1.0 µM, 10.0 µM, and 100.0 µM).

SAP-deficient T cells = assay: RICD assay in SAP silenced T cells; type: cell-based, human; details: 10 µM, 30 min pre-treatment, OKT3 10 ng/mL, 24 h; for rescue of RICD (apoptosis) in SAP-deficient T cells: SAP siRNA
Protocol: PBL were isolated from healthy anonymous human donors by Ficoll-Paque PLUS (GE Healthcare, Chicago, IL) density gradient centrifugation, washed, and resuspended at 2 × 10^6 cell/mL in RPMI-GlutaMAX containing 10% heat inactivated FCS, 2 mM glutamine, and 100 U/mL of penicillin and streptomycin. T cells were activated with 1 µg/mL anti-CD3 (UCHT1) and anti-CD28 (clone CD28.2) antibodies. After three days, activated T cells were washed and cultured in medium additionated of 100 IU/mL rhIL-2 (Peprotech, Rocky Hill, NJ) at 1.2 × 10^6 cells/mL for ≥7 days by changing media for every 2–3 days.
Activated human PBLs were transfected with 200 pmol of siRNA oligonucleotides specific for the target protein (Stealth Select siRNA; Life Technologies, Carlsbad, CA) or a non-specific control oligo (Life Technologies, Carlsbad, CA). Transient transfections were performed using Amaxa nucleofector kits for human T cells (Lonza, Basel, Switzerland) and the Amaxa Nucleofector II or 4D systems (programmes T-20 or EI-115). Cells were cultured in IL-2 (100 IU/mL) for four days to allow target gene knockdown. Knockdown efficiency was periodically evaluated by Western blotting.
To test restimulation induced cell death, activated T cells (10^5 cells/well) were plated in triplicate in 96-well round-bottom plate and treated with anti-CD3 (clone OKT3) (10 ng/mL) in RPMI-GlutaMAX supplemented with 100 IU/mL rhIL-2 for 24 h. In these assays, inhibitors (10 µM) were added 30 min before the restimulation with OKT3. 24 h after treatment, cells were stained with 20 ng/mL propidium iodide and collected for a constant time of 30 s per sample on Attune Nxt Flow Cytometer (Thermo Fisher Scientific, Waltham, MA). Cell death is expressed as % cell loss and calculated as: % cell loss=(1−(number of viable cells in sample/number of viable cells in control)×100)
Results were expressed as mean ± standard error of the mean (SEM). We always compared controls and SAP silenced lymphocytes from the same donors as there is a large individual variability in RICD sensitivity.
To evaluate inhibitor efficacy in physiological context, we modelled XLP-1 by silencing SAP in primary peripheral blood T lymphocytes (PBLs) and restimulating them with anti-CD3 antibody (OKT3 10 ng/mL, 24 h). We pre-treated the cells with the indicated inhibitors for 30 min at a concentration of 10 µM[8].
Figure 9. DGKα inhibitors partially restores apoptosis in SAP deficient lymphocytes. […] After 4 days, the cells were restimulated with CD3 agonist OKT3 (10 ng/mL) in presence of respective inhibitor. Vehicle (DMSO) was used as control. Twenty-four hours later, the % of cell loss was evaluated by PI staining. Data are the mean ± SEM of nine independent experiments performed in triplicate.

Sequence of DGKα (P23743 whole entry): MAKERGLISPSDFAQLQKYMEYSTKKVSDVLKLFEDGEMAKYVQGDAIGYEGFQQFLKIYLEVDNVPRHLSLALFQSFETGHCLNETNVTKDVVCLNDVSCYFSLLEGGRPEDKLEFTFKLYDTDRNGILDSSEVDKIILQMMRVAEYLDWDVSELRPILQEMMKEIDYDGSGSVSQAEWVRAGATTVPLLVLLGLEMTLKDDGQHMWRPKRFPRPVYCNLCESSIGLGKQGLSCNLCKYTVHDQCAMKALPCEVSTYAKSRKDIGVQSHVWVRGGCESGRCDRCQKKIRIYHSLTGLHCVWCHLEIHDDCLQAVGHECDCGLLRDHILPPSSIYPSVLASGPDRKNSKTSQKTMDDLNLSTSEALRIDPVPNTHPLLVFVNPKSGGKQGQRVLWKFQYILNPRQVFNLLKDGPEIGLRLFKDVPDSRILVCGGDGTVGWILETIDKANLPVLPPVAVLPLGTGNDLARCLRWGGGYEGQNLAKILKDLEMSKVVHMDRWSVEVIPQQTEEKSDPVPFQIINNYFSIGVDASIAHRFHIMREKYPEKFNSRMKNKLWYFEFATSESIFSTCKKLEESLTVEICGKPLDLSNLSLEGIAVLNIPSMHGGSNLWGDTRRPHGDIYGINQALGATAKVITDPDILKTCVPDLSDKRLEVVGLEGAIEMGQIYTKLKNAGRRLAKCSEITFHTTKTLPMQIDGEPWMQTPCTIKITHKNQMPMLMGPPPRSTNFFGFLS

inhibition at 100 µM (DGKα; 100 µM) [%]	remaining activity at 100 µM (DGKα; 100 µM) [%]	IC50 (DGKα) [nM]	SMILES	effect on RICD in control siRNA-transfected cells (SAP-deficient T cells)	rescue of RICD (apoptosis) in SAP-deficient T cells (SAP-deficient T cells)
96	4	6900 ± 3000	Cc1ccc2c(C(=O)CN3CCN(C(=O)c4ccco4)CC3)c(C)[nH]c2c1 [Amb639752]	slightly reducing	–
–	6	1600	Cc1ccc2c(C(=O)CN3CCN(C(=O)c4ccc(Cl)cc4)CC3)c(C)[nH]c2c1 [Compound 11, 2-(4-(4-Chlorobenzoyl)piperazin-1-yl)-1-(2,6-dimethyl-1H-indol-3-yl)ethan-1-one]	slightly reducing	restore apoptosis
–	3	1800	Cc1ccc(C(=O)N2CCN(CC(=O)c3c(C)[nH]c4cc(C)ccc34)CC2)cc1 [Compound 20, 1-(2,6-Dimethyl-1H-indol-3-yl)-2-(4-(4-methylbenzoyl)piperazin-1-yl)ethan-1-one]	–	restore apoptosis
